From article PMC11206519, “Multi-Endpoint Toxicological Assessment of Chrysin Loaded Oil-in-Water Emulsion System in Different Biological Models” (Nanomaterials, 2024) come the findings set out here.

Where “and” joins values, the source holds several entries; their conditions need not be identical. Equal entries are not always repeated.

In data set [1] the test system is S. typhimurium TA 100. As to the kind of experiment: Ames test, mutagenicity. Type of data set: cell-based, Salmonella Typhimurium. Conditions: positive control. As for the experimental part: (§1) The S. typhimurium strains TA 98 and TA 100 were used to detect frameshift and base-pair mutations, respectively. […] Then, they were poured onto minimal glucose agar containing a trace amount of histidine, following incubation at 37 °C for 48 h. Then, the revertant colonies were counted and compared with the negative control. If the number of revertant colonies in the tested sample treatment is at least twice that of the negative control (spontaneous revertant colonies), it is considered a mutagen.
A general note: The Ames test detects mutagens through reverse mutation in bacteria.

Data set [2] concerns S. typhimurium TA 98. As to the kind of experiment: Ames test, mutagenicity. The class given is cell-based, Salmonella Typhimurium. As to conditions: +S9; 0.5 µg/plate, positive control. As for the experimental part: as §1
In data set [3] the test system is D. melanogaster trans-heterozygous mwh+/+flr3 larvae of the ST cross. Nature of the data set: SMART wing spot test, anti-mutagenicity, ST cross. As to the method: (§2) The somatic mutation and recombination test, or the wing spot test, using D. melanogaster was employed as an in vivo system to assess the mutagenicity and anti-mutagenicity of chrysin-ES. Two different crosses were conducted: (i) a standard cross (ST) and (ii) a high bioactivation cross (HB). The standard cross larvae were obtained from virgin female of flr3/TM3, Ser crossed with males of mwh/mwh, while the HB cross larvae expressing cytochrome P450 enzymes involved in xenobiotic biotransformation were obtained from virgin females of ORR/ORR; flr^3/In (3LR) TM3, ri p^psep l (3)89Aa bx^34e e Bd^s crossed with males of mwh/mwh. The flies were cultured at a constant temperature of 25 ± 1 °C and 60–70% RH at photoperiod 12:12 (light/dark). To evaluate the mutagenicity of chrysin and chrysin-ES, a hundred larva F1 progenies derived from the above crossing were fed with instant Drosophila medium (Formula 4-24®), Carolina, Burlington, NC, USA) containing chrysin or chrysin-ES (20–120 µg/mL). DI was used as a negative control, while 20 mM urethane (URE) was used as a positive control. The larvae were reared on each medium until pupation at 25 °C. After that, forty wings of surviving flies in each group were collected for mutant analysis. The mutant spots on the wings, including small single spots, large single spots, and twin spots, were counted. The statistical significance was calculated as previously described by Frei and Würgler.
(§3) Furthermore, the anti-mutagenicity of the samples was performed by a similar procedure as mentioned above.

Data set [4] has as its system D. melanogaster trans-heterozygous mwh+/+flr3 larvae of the HB cross. As to the kind of experiment: SMART wing spot test, anti-mutagenicity, HB cross. As for the experimental part:
as §2, §3

Data set [5] relates to S. typhimurium TA100. Nature of the data set: Ames test, anti-mutagenicity. Conditions: standard mutagen alone, 0.05 µg/plate, +S9. As for the experimental part:
(§4) Furthermore, the anti-mutagenicity of the samples was performed by a similar procedure, as mentioned above. […] The percentage inhibition (decrease revertant colony number) was calculated as in the following equation:Anti-mutagenicity (%) = [1 − (b/a)] × 100 • a = revertant colony number induced via standard mutagen (positive control). • b = revertant colony number induced by standard mutagen in the presence of each sample treatment.
(§5) The percent of inhibition between 0–20%, 21–40%, 41–60%, and higher than 60% indicate negligible, weak, moderate, and strong anti-mutagenicity, respectively.

Data set [6] relates to S. typhimurium TA98. As to the kind of experiment: Ames test, anti-mutagenicity. As to conditions: standard mutagen alone, 0.1 µg/plate, +S9. As for the experimental part: as §4, §5
The subject of data set [7] is D. melanogaster trans-heterozygous mwh+/+flr3 larvae of the ST cross. Nature of the data set: SMART wing spot test, mutagenicity, ST cross. The class given is in vivo, Drosophila melanogaster. Conditions: 20 mM, positive control.
Protocol: (§6) The somatic mutation and recombination test, or the wing spot test, using D. melanogaster was employed as an in vivo system to assess the mutagenicity and anti-mutagenicity of chrysin-ES. Two different crosses were conducted: (i) a standard cross (ST) and (ii) a high bioactivation cross (HB) [18]. The standard cross larvae were obtained from virgin female of flr3/TM3, Ser crossed with males of mwh/mwh, while the HB cross larvae expressing cytochrome P450 enzymes involved in xenobiotic biotransformation were obtained from virgin females of ORR/ORR; flr^3/In (3LR) TM3, ri p^psep l (3)89Aa bx^34e e Bd^s crossed with males of mwh/mwh. The flies were cultured at a constant temperature of 25 ± 1 °C and 60–70% RH at photoperiod 12:12 (light/dark). To evaluate the mutagenicity of chrysin and chrysin-ES, a hundred larva F1 progenies derived from the above crossing were fed with instant Drosophila medium (Formula 4-24®), Carolina, Burlington, NC, USA) containing chrysin or chrysin-ES (20–120 µg/mL). DI was used as a negative control, while 20 mM urethane (URE) was used as a positive control. The larvae were reared on each medium until pupation at 25 °C. After that, forty wings of surviving flies in each group were collected for mutant analysis. The mutant spots on the wings, including small single spots, large single spots, and twin spots, were counted.
In data set [8] the test system is D. melanogaster trans-heterozygous mwh+/+flr3 larvae of the HB cross. As to the kind of experiment: SMART wing spot test, mutagenicity, HB cross. The class given is in vivo, Drosophila melanogaster. Conditions: 20 mM, positive control.
Protocol: as §6
The mark [9] stands for this setting: NMU alone (sodium nitrite 36 mM: methylurea 10 mM).
[10] abbreviates: Nitrite alone (sodium nitrite 36 mM).

As for `Nc1ccc2cc3ccccc3cc2c1` [2-AA, 2-Aminoanthracene, reference compound], the “Number of Revertant Colonies” value in data set [1] (+S9, 0.5 µg/plate) was 487 ± 29; in data set [2], 459 ± 44.

As to `NC(=O)C(=Cc1ccc([N+](=O)[O-])o1)c1ccco1` [AF-2, 2-(2-Furyl)-3-(5-nitro-2-furyl) acrylamide, reference compound], the “Number of Revertant Colonies” value in data set [1] (−S9, 0.1 µg/plate) turned out to be 439 ± 30.

For `CCOS(C)(=O)=O` [EMS, ethyl methanesulfonate, reference compound], in data set [3] (EMS 5 mM alone), the “Mutant spots per individual (number of spots), Large Single” value was 1.75 (70); the “Mutant spots per individual (number of spots), Small Single” value is listed as 5.60 (224); the “Mutant spots per individual (number of spots), Total” value was 7.80 (312); the “Mutant spots per individual (number of spots), Twin” value (“Mutant spots per individual … Twin” below) was 0.45 (18). In data set [3] (EMS 5 mM alone, vs DI), the “Statistical diagnosis, Large Single” value is reported as “+”; the “Statistical diagnosis, Small Single” value is “+”; the “Statistical diagnosis, Total” value is reported as “+”; the “Statistical diagnosis, Twin” value is on record as “+”. Further, in data set [4] (EMS 5 mM alone), the “Mutant spots per individual (number of spots), Large Single” value was 0.40 (16); the “Mutant spots per individual (number of spots), Small Single” value is listed as 10.00 (400); the “Mutant spots per individual (number of spots), Total” value is reported as 10.40 (416); the “Mutant spots per individual … Twin” value was 0 (0). Moreover, in data set [4] (EMS 5 mM alone, vs DI), the “Statistical diagnosis, Large Single” value was “+” and the “Statistical diagnosis, Small Single” value is “+”.

Regarding `Cn1c(N)nc2c3cccnc3ccc21` [IQ, 2-Amino-3-methylimidazo(4,5-f) quinoline, reference compound], in data set [5], the “Number of Revertant Colonies” value is listed as 730 ± 39.

Take `CNC(N)=O` [Methylurea, methylurea, reference compound]: in data set [3] (in vivo), the “Statistical diagnosis, Small Single” value was “−” and the “Statistical diagnosis, Total” value is on record as “−”. Besides, in data set [4] (in vivo), the “Statistical diagnosis, Small Single” value was “−”.

For `CN(N=O)C(N)=O` [NMU, N-nitrosomethylurea, reference compound], in data set [3] (setting [9]), the “Mutant spots per individual (number of spots), Large Single” value is on record as 0.10 (4); the “Mutant spots per individual (number of spots), Small Single” value is given as 1.70 (68); the “Mutant spots per individual (number of spots), Total” value is reported as 2.00 (80); the “Mutant spots per individual … Twin” value is 0.20 (8). In addition, in data set [3] (NMU alone, vs DI), the “Statistical diagnosis, Small Single” value is reported as “+”; the “Statistical diagnosis, Total” value is “+”; the “Statistical diagnosis, Twin” value is listed as “+”. In data set [4] (setting [9]), the “Mutant spots per individual (number of spots), Large Single” value was 0.40 (16); the “Mutant spots per individual (number of spots), Small Single” value is 1.43 (57); the “Mutant spots per individual (number of spots), Total” value is 1.93 (77); the “Mutant spots per individual … Twin” value is 0.10 (4). In data set [4] (NMU alone, vs DI), the “Statistical diagnosis, Large Single” value is reported as “+”; the “Statistical diagnosis, Small Single” value was “−”; the “Statistical diagnosis, Total” value is given as “+”.

Take `O=N[O-].[Na+]` [Nitrite, sodium nitrite, reference compound]: in data set [3] (setting [10]), the “Mutant spots per individual (number of spots), Large Single” value is listed as 0 (0); the “Mutant spots per individual (number of spots), Small Single” value was 0.05 (2); the “Mutant spots per individual (number of spots), Total” value is listed as 0.08 (3); the “Mutant spots per individual … Twin” value is reported as 0.03 (1). In data set [3] (Nitrite alone, vs DI), the “Statistical diagnosis, Small Single” value is “−” and the “Statistical diagnosis, Total” value was “−”. In addition, in data set [4] (setting [10]), the “Mutant spots per individual (number of spots), Large Single” value is given as 0.03 (1); the “Mutant spots per individual (number of spots), Small Single” value is 0.25 (10); the “Mutant spots per individual (number of spots), Total” value is on record as 0.28 (11); the “Mutant spots per individual … Twin” value is 0 (0). Further, the “Statistical diagnosis, Small Single” value in data set [4] (Nitrite alone, vs DI) is given as “−”.

As to `Cn1c(N)nc2ncc(-c3ccccc3)cc21` [PhIP, 2-amino-1-methyl-6-phenylimidazo (4,5-b) pyridine, reference compound], the “Number of Revertant Colonies” value in data set [6] stood at 400 ± 11.

Turning to `CCOC(N)=O` [URE, urethane, reference compound], in data set [7], the “Mutant spots per individual (number of spots), Large Single” value is reported as 0.08 (3); the “Mutant spots per individual (number of spots), Small Single” value is given as 3.73 (149); the “Mutant spots per individual (number of spots), Total Spots” value was 3.80 and 3.80 (152); the “Mutant spots per individual … Twin” value is reported as 0 (0). For the same compound, in data set [7] (vs DI), the “Statistical diagnosis, Large Single” value is recorded as “+”; the “Statistical diagnosis, Small Single” value is listed as “+”; the “Statistical diagnosis, Total Spots” value was “+”. For the same compound, in data set [8], the “Mutant spots per individual (number of spots), Large Single” value is on record as 3.10 (62); the “Mutant spots per individual (number of spots), Small Single” value was 10.10 (202); the “Mutant spots per individual (number of spots), Total Spots” value is 14.50 and 14.50 (290); the “Mutant spots per individual … Twin” value was 1.30 (26). For the same compound, in data set [8] (vs DI), the “Statistical diagnosis, Large Single” value is “+”; the “Statistical diagnosis, Small Single” value is “+”; the “Statistical diagnosis, Total Spots” value is listed as “+”; the “Statistical diagnosis, Twin” value was “+”.
